Experimental data from paper PMC5478271, “Chemical structure-guided design of dynapyrazoles, cell-permeable dynein inhibitors with a unique mode of action” (eLife, 2017).
Like-named read-outs stand apart in the source and are kept apart here.

Target: T1, human cytoplasmic dynein 1 (GFP-dynein 1, AA 1320–4646) (Homo sapiens, UniProt Q14204)
T1 construct: (AA 1320–4646 with additional valine [at position 4647], uniprot Q14204); protein A tag (followed by TEV-cleavable linker) (N, cleaved yes); made in house; host or cells: insect cells (baculovirus)
T1 sequence (Q14204 with tags, fused parts or gaps): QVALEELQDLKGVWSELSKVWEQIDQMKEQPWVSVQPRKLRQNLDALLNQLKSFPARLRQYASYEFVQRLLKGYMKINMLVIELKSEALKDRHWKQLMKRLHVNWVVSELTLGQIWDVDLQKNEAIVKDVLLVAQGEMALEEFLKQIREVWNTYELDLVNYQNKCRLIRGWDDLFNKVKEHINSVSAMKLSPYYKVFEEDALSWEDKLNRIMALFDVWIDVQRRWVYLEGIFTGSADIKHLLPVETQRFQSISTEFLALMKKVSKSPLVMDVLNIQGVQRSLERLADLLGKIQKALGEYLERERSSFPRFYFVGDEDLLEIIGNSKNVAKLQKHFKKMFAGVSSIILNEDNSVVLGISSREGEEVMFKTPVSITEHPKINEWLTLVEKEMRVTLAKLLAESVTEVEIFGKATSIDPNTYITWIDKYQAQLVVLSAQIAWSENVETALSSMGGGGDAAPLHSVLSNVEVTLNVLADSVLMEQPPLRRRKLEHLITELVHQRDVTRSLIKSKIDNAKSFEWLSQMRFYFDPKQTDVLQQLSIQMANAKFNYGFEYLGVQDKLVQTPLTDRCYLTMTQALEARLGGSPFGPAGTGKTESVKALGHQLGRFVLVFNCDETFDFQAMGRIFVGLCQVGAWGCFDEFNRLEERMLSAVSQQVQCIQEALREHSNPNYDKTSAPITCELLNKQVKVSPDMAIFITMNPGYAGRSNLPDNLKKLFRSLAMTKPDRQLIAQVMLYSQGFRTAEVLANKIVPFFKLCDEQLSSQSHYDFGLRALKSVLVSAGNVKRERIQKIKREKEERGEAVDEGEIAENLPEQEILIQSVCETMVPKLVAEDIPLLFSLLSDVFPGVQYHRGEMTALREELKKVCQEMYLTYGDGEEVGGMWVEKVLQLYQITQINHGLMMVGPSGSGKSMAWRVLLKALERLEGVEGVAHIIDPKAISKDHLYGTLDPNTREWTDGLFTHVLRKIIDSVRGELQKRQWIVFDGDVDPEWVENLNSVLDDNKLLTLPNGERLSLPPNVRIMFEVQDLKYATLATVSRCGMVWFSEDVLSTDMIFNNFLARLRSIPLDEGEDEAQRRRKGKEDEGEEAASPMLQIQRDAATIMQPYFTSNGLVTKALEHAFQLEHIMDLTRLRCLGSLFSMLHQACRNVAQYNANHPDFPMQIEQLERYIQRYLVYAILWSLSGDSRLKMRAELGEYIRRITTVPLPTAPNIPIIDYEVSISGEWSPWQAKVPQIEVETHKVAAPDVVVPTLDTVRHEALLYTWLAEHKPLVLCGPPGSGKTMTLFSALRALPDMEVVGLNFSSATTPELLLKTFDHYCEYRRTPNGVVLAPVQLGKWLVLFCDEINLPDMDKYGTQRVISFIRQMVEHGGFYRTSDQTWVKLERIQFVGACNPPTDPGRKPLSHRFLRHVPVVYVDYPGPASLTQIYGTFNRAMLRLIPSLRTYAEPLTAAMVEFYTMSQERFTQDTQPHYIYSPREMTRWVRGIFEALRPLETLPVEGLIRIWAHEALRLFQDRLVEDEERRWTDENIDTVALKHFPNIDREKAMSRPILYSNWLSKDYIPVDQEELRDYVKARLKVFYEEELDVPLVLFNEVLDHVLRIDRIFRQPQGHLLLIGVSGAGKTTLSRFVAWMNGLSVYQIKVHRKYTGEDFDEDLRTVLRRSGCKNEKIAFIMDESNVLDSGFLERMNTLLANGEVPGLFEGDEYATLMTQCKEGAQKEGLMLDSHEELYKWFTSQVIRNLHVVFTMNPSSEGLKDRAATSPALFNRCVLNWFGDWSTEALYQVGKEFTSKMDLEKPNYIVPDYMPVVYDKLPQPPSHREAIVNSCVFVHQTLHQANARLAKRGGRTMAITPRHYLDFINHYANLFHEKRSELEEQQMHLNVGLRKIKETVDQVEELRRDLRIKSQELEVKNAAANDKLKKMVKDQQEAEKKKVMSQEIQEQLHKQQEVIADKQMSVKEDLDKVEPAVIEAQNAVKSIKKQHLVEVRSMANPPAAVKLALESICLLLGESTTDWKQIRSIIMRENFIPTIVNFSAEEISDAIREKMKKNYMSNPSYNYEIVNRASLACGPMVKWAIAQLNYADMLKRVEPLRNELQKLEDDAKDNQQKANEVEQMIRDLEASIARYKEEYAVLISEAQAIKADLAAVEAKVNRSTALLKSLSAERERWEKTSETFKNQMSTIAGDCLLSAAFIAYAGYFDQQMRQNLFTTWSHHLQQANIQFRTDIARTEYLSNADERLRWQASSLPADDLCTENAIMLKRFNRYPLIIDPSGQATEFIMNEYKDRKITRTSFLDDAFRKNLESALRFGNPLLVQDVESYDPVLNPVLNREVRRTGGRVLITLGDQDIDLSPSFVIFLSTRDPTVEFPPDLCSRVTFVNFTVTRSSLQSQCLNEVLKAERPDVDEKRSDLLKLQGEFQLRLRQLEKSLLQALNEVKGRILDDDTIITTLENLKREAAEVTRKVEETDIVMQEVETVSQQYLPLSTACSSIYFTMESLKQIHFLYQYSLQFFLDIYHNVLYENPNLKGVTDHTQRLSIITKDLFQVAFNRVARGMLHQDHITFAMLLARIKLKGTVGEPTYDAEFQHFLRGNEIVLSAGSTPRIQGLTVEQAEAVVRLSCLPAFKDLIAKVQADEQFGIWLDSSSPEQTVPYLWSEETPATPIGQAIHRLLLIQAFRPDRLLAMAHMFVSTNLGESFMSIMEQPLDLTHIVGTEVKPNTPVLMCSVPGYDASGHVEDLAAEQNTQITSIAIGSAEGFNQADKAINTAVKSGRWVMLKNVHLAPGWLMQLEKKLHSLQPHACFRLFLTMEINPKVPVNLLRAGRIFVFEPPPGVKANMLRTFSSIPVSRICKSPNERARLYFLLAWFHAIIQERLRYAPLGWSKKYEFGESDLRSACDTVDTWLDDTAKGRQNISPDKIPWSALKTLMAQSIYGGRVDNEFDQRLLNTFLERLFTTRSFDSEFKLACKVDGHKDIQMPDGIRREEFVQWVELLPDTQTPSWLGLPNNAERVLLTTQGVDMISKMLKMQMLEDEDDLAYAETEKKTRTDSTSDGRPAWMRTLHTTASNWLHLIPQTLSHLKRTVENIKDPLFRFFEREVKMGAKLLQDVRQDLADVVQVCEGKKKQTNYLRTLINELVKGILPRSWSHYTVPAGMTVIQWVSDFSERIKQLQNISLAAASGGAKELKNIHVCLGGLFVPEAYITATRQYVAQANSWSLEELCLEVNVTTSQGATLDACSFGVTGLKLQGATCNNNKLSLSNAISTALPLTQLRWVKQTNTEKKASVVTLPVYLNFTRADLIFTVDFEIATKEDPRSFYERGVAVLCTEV
Assay: Microtubule gliding (motility) assay with GFP-dynein 1
Type: biochemical
Text: To examine the inhibition of dynein 1 by dynapyrazole-A in vitro we generated recombinant human protein. We expressed and purified a GFP-tagged human dynein 1 (AA 1320–4646) construct similar to the one we used for GFP-dynein 2. […] GFP-dynein 1 moves microtubules at 508 ± 60 nm/s (n = 5 independent experiments, 191 microtubules analyzed), a velocity expected based on studies of other mammalian dynein 1 homologs ([Yamada et al., 2008]). Under these conditions, ~97% of the filaments analyzed had velocities >50 nm/s (Figure 5—figure supplement 1). […] As has been previously noted for ciliobrevin D, the potency of dynapyrazole-A was sensitive to the protein (e.g. blocking agent, serum) concentration in solution (Figure 5—figure supplement 4), likely due to the hydrophobicity of these compounds (calculated logarithm of octanol:water partition coefficient [ClogP]: ciliobrevin D: 4.5; dynapyrazole-A: 4.2) ([Firestone et al., 2012]).
Reaction setup: A coverslip-based motility assay was adapted from similar assays reported previously ([Firestone et al., 2012]; [Schmidt et al., 2015]). A flow chamber assembled on a pre-cleaned microscope coverslide (3–5 µL chamber volume) was hydrated with buffer A (25 mM PIPES, 30 mM KCl, 5 mM MgCl2, 1 mM EGTA, 0.01% Triton X-100, 1 mM DTT, 20 µM taxol, pH 7.0 with KOH). Anti-GFP antibody (0.4 mg/mL, affinity purified rabbit antibody) was flowed into the chamber and allowed to adhere non-specifically to the glass for 20 s. The surface was blocked using 0.5 mg/mL α-casein in buffer A. Excess protein was then washed away with buffer A. GFP-dynein motor domain was diluted in buffer A supplemented with 1 mM DTT and 0.1 mM ATP (2 mM DTT final; GFP-dynein 2 diluted to: 180 nM; GFP-dynein 1 diluted to: 60 nM), flowed into the chamber and allowed to bind for 20 s. Excess protein was washed away with buffer A. Reaction mix (25 mM PIPES, 90 mM KCl, 6 mM MgCl2, 1 mM EGTA, 0.01% Triton X-100, 3 mM DTT, 20 µM taxol, 1 mM ATP, 1x oxygen scavenging system components [4.5 mg/mL glucose, 35 µg/mL catalase, 200 µg/mL glucose oxidase], 2% final DMSO [v/v] with compounds at appropriate concentrations, 0.05 mg/mL α-casein, microtubules [rhodamine labeled, purified from bovine brain, GMP-CPP and Taxol-stabilized], pH 7.0 with KOH) was flowed into the chamber using ~4 chamber volumes. For experiments shown in Figure 4—figure supplement 1, α-casein concentration in reaction mix was 0.5 mg/mL and all other parameters were held constant.
For reversibility experiments, motility in the presence of 5 µM 8 was observed as above, and upon completion of imaging, the chamber, fresh buffer A supplemented with 1 mM ATP was flowed into the chamber and incubated for 1 min; this wash and incubation cycle was repeated twice. Reaction mix containing DMSO (no compound) was flowed into the chamber using ~4 chamber volumes. The chamber was sealed with valap and returned to the microscope.
Microscopy conditions: Following addition of reaction mix, microtubules were allowed to bind for 5 min before imaging. For reversibility experiments, microtubules were allowed to bind for 10 min before imaging. […] Velocities were measured using the kymograph tool in FIJI ([Schindelin et al., 2012]). […]
Microtubule velocity measurements: the tracks of microtubules were traced and converted to kymographs (x axis-displacement, y axis-time) using the kymograph function of FIJI (RRID: SCR_002285). The angle formed between an edge of a microtubule and the horizontal was measured. […]

[1] = 1 mM MgATP, 0.05 mg/mL casein, 2% DMSO, read-out: IC50, inhibition of GFP-dynein 1-driven motility

Row | Compound | IC50 [1] | Reversibility of inhibition of dynein-1-dependent microtubule gliding after washout (5 µM 8, then washout, 1 mM ATP, 0.05 mg/mL casein) | IC50 (1 mM ATP, 0.5 mg/mL casein, read-out: IC50, inhibition of GFP-dynein 1-driven motility in the presence of 0.5 mg/ml casein) | Potency relative to ciliobrevin D, GFP-dynein-1-driven motility (more potent than ciliobrevin D)
1 | N#C/C(C(=O)c1ccc(Cl)cc1Cl)=C1\NC(=O)c2ccc(Cl)cc2N1 [ciliobrevin D, reference compound] | 15 ± 2.9 µM | – | – | –
2 | N#Cc1c(C2(c3ccc(Cl)cc3)CC2)nn2c1[nH]c(=O)c1cc(I)ccc12 [Compound 8, 2-[1-(4-chlorophenyl)cyclopropyl]-7-iodo-5-oxo-4H-pyrazolo[1,5-a]quinazoline-3-carbonitrile] | 2.3 ± 1.4 µM | reversed following washout | 10.5 ± 4.6 µM | ~ 6 fold
